Patent publication US20250034216A1, “STEREOSELECTIVE COVALENT LIGANDS FOR ONCOGENIC AND IMMUNOLOGICAL PROTEINS” (The Scripps Research Institute, priority 2021, published 2025)

Assays:
[1] = target: T1, SNX11_C181 (Homo sapiens, UniProt Q9Y5W9); experiment: IA-DTB cysteine engagement; type: binding; settings: 22Rv1 cells, 20 μM probe, 1 h, relative to DMSO
T1 construct: endogenous in cells; host or cells: 22Rv1
T1 sequence (Q9Y5W9 1-270): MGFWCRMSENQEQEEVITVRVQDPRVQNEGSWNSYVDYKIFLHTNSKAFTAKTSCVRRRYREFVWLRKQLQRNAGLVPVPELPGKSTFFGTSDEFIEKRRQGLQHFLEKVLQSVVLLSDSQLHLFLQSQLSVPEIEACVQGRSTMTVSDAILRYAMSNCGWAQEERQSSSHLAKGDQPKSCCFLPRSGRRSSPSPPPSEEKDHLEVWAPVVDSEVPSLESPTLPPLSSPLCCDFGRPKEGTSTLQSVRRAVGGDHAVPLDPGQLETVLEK
Procedure, shortened: (§1)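 Probe-exposed cells were lysed, IA-DTB-labeled, trypsinized and streptavidin-enriched. Multiplexed TMT quantitation gave engagement ratios versus DMSO, with non-tryptic peptides excluded and intensities normalized to median summed signal.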

[2] = target: T2, WAPL_C1133 (Homo sapiens, UniProt Q7Z5K2); experiment: IA-DTB cysteine engagement; type: binding; settings: 22Rv1 cells, 20 μM probe, 1 h, relative to DMSO
T2 construct: endogenous in cells; host or cells: 22Rv1
T2 sequence (Q7Z5K2 1-1190): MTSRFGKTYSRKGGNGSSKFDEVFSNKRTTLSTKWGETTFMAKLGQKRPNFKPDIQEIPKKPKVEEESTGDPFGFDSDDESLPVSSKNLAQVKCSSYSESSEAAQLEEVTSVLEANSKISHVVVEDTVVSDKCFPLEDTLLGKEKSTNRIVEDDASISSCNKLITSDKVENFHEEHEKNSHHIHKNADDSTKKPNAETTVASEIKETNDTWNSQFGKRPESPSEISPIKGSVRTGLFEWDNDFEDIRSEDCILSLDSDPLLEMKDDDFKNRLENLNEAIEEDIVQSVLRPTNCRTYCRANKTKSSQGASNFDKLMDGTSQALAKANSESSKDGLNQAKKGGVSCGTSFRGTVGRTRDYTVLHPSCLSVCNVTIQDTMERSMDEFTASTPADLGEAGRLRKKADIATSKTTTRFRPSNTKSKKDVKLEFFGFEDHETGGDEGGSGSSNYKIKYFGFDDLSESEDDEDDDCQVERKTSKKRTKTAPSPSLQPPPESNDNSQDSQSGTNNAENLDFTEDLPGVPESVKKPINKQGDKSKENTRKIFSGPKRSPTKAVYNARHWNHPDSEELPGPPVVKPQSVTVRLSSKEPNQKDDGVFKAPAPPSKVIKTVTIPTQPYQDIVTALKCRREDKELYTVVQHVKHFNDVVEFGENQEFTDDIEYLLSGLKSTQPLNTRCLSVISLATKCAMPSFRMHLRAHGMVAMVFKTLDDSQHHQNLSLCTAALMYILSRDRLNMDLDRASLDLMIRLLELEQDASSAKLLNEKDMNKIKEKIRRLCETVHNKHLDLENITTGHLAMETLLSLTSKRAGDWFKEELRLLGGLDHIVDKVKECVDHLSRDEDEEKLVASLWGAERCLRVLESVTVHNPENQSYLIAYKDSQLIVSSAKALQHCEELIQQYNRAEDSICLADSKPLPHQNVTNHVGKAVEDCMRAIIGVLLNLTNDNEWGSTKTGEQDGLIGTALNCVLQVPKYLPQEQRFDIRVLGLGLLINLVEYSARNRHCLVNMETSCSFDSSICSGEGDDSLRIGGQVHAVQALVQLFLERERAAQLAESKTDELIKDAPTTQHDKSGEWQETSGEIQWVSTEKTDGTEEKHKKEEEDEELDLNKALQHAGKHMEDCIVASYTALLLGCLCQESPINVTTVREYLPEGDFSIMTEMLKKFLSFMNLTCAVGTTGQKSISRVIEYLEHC
Procedure, shortened: as §1

| SMILES | % engagement SNX11_C181 [1] [%] | % engagement WAPL_C1133 [2] [%] |
| --- | --- | --- |
| C=CC(=O)N1C[C@@H](c2ccc(Br)cc2)[C@H]1C(=O)Nc1cccc2cccnc12 [MY-1A, (2S,3R)-1-acryloyl-3-(4-bromophenyl)-N-(quinolin-8-yl)azetidine-2-carboxamide] | 54.5 | 18 |
| C=CC(=O)N1C[C@H](c2ccc(Br)cc2)[C@@H]1C(=O)Nc1cccc2cccnc12 [MY-1B, (2R,3S)-1-acryloyl-3-(4-bromophenyl)-N-(quinolin-8-yl)azetidine-2-carboxamide] | 68.5 | 34 |
| C=CC(=O)N1C[C@H](c2ccc(Br)cc2)[C@H]1C(=O)Nc1cccc2cccnc12 [MY-3A, (2S,3S)-1-acryloyl-3-(4-bromophenyl)-N-(quinolin-8-yl)azetidine-2-carboxamide] | 17 | 78.5 |
| C=CC(=O)N1C[C@H](c2ccc(Br)cc2)[C@H]1C(=O)Nc1cccc2cccnc12 [MY-3B, (2S,3S)-1-acryloyl-3-(4-bromophenyl)-N-(quinolin-8-yl)azetidine-2-carboxamide] | 23 | 46 |
